Experimental data reported in the NIST ThermoML archive (doi:10.1016/j.jct.2005.10.009).
± gives the expanded uncertainty stated by the source.

Assay: molar heat capacity at constant pressure; xn = mol fraction of the nth substance listed
Details: 101 kPa, Liquid, Small sample (50 mg) DSC

CCCCCCCCCCO [decan-1-ol] + CCCCCCC
molar heat capacity at constant pressure [J/K/mol]
Details | x1 = 0.0506 | x1 = 0.0979 | x1 = 0.1541 | x1 = 0.2543 | x1 = 0.3757 | x1 = 0.5378 | x1 = 0.7551 | x1 = 0.9008 | x1 = 1
290.91 K | 235.98 ± 3.7 | 243.78 ± 3.8 | 252.15 ± 3.9 | 266.07 ± 4.1 | 282.7 ± 4.4 | 304.21 ± 4.7 | 333.09 ± 5.2 | 351.55 ± 5.5 | 364.49 ± 5.7
291.15 K | 236.08 ± 3.7 | 243.9 ± 3.8 | 252.2 ± 3.9 | 266.16 ± 4.1 | 282.63 ± 4.4 | 304.17 ± 4.7 | 333.35 ± 5.2 | 351.9 ± 5.5 | 364.8 ± 5.7
292.15 K | 236.53 ± 3.7 | 244.42 ± 3.8 | 252.79 ± 3.9 | 266.99 ± 4.1 | 283.4 ± 4.4 | 305.3 ± 4.7 | 334.38 ± 5.2 | 353.11 ± 5.5 | 366.05 ± 5.7
293.15 K | 237.09 ± 3.7 | 245.13 ± 3.8 | 253.5 ± 3.9 | 267.69 ± 4.2 | 284.09 ± 4.4 | 306.17 ± 4.7 | 335.4 ± 5.2 | 354.31 ± 5.5 | 367.19 ± 5.7
294.15 K | 237.67 ± 3.7 | 245.8 ± 3.8 | 254.28 ± 3.9 | 268.44 ± 4.2 | 284.97 ± 4.4 | 307.04 ± 4.8 | 336.39 ± 5.2 | 355.23 ± 5.5 | 368.25 ± 5.7
295.15 K | 238.27 ± 3.7 | 246.44 ± 3.8 | 255.06 ± 4 | 269.19 ± 4.2 | 285.92 ± 4.4 | 308.08 ± 4.8 | 337.47 ± 5.2 | 356.26 ± 5.5 | 369.35 ± 5.7
296.15 K | 238.89 ± 3.7 | 247.13 ± 3.8 | 255.82 ± 4 | 269.75 ± 4.2 | 286.81 ± 4.4 | 308.89 ± 4.8 | 338.44 ± 5.2 | 357.26 ± 5.5 | 370.35 ± 5.7
297.15 K | 239.51 ± 3.7 | 247.87 ± 3.8 | 256.61 ± 4 | 270.59 ± 4.2 | 287.73 ± 4.5 | 309.97 ± 4.8 | 339.61 ± 5.3 | 358.4 ± 5.5 | 371.6 ± 5.8
298.15 K | 239.86 ± 3.7 | 248.38 ± 3.9 | 257.16 ± 4 | 271.36 ± 4.2 | 288.4 ± 4.5 | 310.74 ± 4.8 | 340.46 ± 5.3 | 359.54 ± 5.6 | 372.77 ± 5.8
299.15 K | 240.3 ± 3.7 | 248.86 ± 3.9 | 257.8 ± 4 | 272.19 ± 4.2 | 289.09 ± 4.5 | 311.53 ± 4.8 | 341.42 ± 5.3 | 360.58 ± 5.6 | 373.71 ± 5.8
300.15 K | 240.83 ± 3.7 | 249.51 ± 3.9 | 258.45 ± 4 | 272.99 ± 4.2 | 289.92 ± 4.5 | 312.43 ± 4.8 | 342.44 ± 5.3 | 361.76 ± 5.6 | 374.91 ± 5.8
301.15 K | 241.28 ± 3.7 | 250.01 ± 3.9 | 259.03 ± 4 | 273.68 ± 4.2 | 290.74 ± 4.5 | 313.24 ± 4.8 | 343.35 ± 5.3 | 362.66 ± 5.6 | 375.89 ± 5.8
302.15 K | 241.86 ± 3.8 | 250.66 ± 3.9 | 259.8 ± 4 | 274.46 ± 4.2 | 291.61 ± 4.5 | 314.17 ± 4.9 | 344.4 ± 5.3 | 363.81 ± 5.6 | 377.05 ± 5.8
303.15 K | 242.35 ± 3.8 | 251.17 ± 3.9 | 260.34 ± 4 | 275.23 ± 4.3 | 292.47 ± 4.5 | 315.15 ± 4.9 | 345.4 ± 5.3 | 364.87 ± 5.7 | 378.2 ± 5.9
304.15 K | 242.86 ± 3.8 | 251.87 ± 3.9 | 261.18 ± 4 | 276.03 ± 4.3 | 293.43 ± 4.5 | 316.13 ± 4.9 | 346.52 ± 5.4 | 366.04 ± 5.7 | 379.47 ± 5.9
305.15 K | 243.39 ± 3.8 | 252.56 ± 3.9 | 261.84 ± 4.1 | 276.84 ± 4.3 | 294.24 ± 4.6 | 317.05 ± 4.9 | 347.59 ± 5.4 | 367.12 ± 5.7 | 380.58 ± 5.9
306.15 K | 243.87 ± 3.8 | 253.07 ± 3.9 | 262.53 ± 4.1 | 277.6 ± 4.3 | 295.15 ± 4.6 | 318 ± 4.9 | 348.57 ± 5.4 | 368.24 ± 5.7 | 381.75 ± 5.9
307.15 K | 244.14 ± 3.8 | 253.41 ± 3.9 | 262.92 ± 4.1 | 278.04 ± 4.3 | 295.57 ± 4.6 | 318.55 ± 4.9 | 349.26 ± 5.4 | 368.97 ± 5.7 | 382.43 ± 5.9
308.15 K | 245.18 ± 3.8 | 254.65 ± 4 | 264.24 ± 4.1 | 279.52 ± 4.3 | 297.18 ± 4.6 | 320.29 ± 5 | 351.13 ± 5.4 | 370.98 ± 5.8 | 384.6 ± 6
309.15 K | 245.41 ± 3.8 | 255.04 ± 4 | 264.68 ± 4.1 | 280.05 ± 4.3 | 297.76 ± 4.6 | 320.96 ± 5 | 351.89 ± 5.5 | 371.76 ± 5.8 | 385.42 ± 6
310.15 K | 245.95 ± 3.8 | 255.58 ± 4 | 265.32 ± 4.1 | 280.82 ± 4.3 | 298.67 ± 4.6 | 321.92 ± 5 | 352.97 ± 5.5 | 372.9 ± 5.8 | 386.61 ± 6
311.15 K | 246.43 ± 3.8 | 256.31 ± 4 | 266.13 ± 4.1 | 281.69 ± 4.4 | 299.62 ± 4.6 | 323.01 ± 5 | 354.17 ± 5.5 | 374.19 ± 5.8 | 387.89 ± 6
312.15 K | 246.88 ± 3.8 | 256.87 ± 4 | 266.75 ± 4.1 | 282.41 ± 4.4 | 300.41 ± 4.7 | 323.89 ± 5 | 355.15 ± 5.5 | 375.27 ± 5.8 | 389.03 ± 6
313.15 K | 247.31 ± 3.8 | 257.46 ± 4 | 267.42 ± 4.1 | 283.25 ± 4.4 | 301.36 ± 4.7 | 324.89 ± 5 | 356.22 ± 5.5 | 376.4 ± 5.8 | 390.28 ± 6
314.15 K | 247.77 ± 3.8 | 258.06 ± 4 | 268.13 ± 4.2 | 284.06 ± 4.4 | 302.25 ± 4.7 | 325.9 ± 5 | 357.35 ± 5.5 | 377.6 ± 5.8 | 391.58 ± 6.1
315.15 K | 248.34 ± 3.9 | 258.68 ± 4 | 268.86 ± 4.2 | 284.88 ± 4.4 | 303.16 ± 4.7 | 326.94 ± 5.1 | 358.54 ± 5.5 | 378.81 ± 5.9 | 392.8 ± 6.1
316.15 K | 248.75 ± 3.9 | 259.2 ± 4 | 269.56 ± 4.2 | 285.67 ± 4.4 | 304.03 ± 4.7 | 327.84 ± 5.1 | 359.56 ± 5.6 | 379.98 ± 5.9 | 394.11 ± 6.1
317.15 K | 249.2 ± 3.9 | 259.91 ± 4 | 270.2 ± 4.2 | 286.49 ± 4.4 | 304.91 ± 4.7 | 328.86 ± 5.1 | 360.67 ± 5.6 | 381.22 ± 5.9 | 395.3 ± 6.1
318.15 K | 249.65 ± 3.9 | 260.46 ± 4 | 270.95 ± 4.2 | 287.25 ± 4.5 | 305.87 ± 4.7 | 329.91 ± 5.1 | 361.79 ± 5.6 | 382.38 ± 5.9 | 396.66 ± 6.2
318.39 K | 249.73 ± 3.9 | 260.52 ± 4 | 271.04 ± 4.2 | 287.43 ± 4.5 | 306.02 ± 4.7 | 330.09 ± 5.1 | 362.01 ± 5.6 | 382.62 ± 5.9 | 396.93 ± 6.2
